The values below come from ChEMBL document CHEMBL5126599, “Development of S-aryl dithiocarbamate derived novel antiproliferative compound exhibiting tubulin bundling” (Bioorg Med Chem, 2022).

Broadly, the IC50 is the point on the concentration scale where inhibition reaches its midpoint.

In one experiment the test system is A549. The experiment can be described thus: Antiproliferative activity against human A549 cells assessed as reduction in cell viability incubated for 72 hrs by MTT assay. The format is functional, cell-based. The settings on record: A549, 72 h. A general note: Tetrazolium dyes change colour on reduction, which living cells bring about.
For experiment [1], the system named is HeLa. The experiment can be described thus: Induction of apoptosis in human HeLa cells assessed as increase in p21 protein expression at 0.432 to 0.864 uM for 72 hrs by Western blot analysis. The format is functional, cell-based. The settings on record: dose 0.432-0.864 µM. (Immunoblotting shows a protein as a band on a membrane.)
In experiment [2] the test system is HeLa. The experiment can be described thus: Antiproliferative activity against human HeLa cells assessed as reduction in number of colonies at 0.432 to 0.864 uM for 72 hrs with media renew every 2 days and measured upto 2 weeks by crystal violet staining based microscopic analysis. The format is functional, cell-based. The settings on record: dose 0.432-0.864 µM, DDE = dose-dependent effect.

In experiment [3] the test system is HeLa. Briefly: Induction of cell cycle arrest in human HeLa cells assessed as increase in cyclin B1 expression at 0.432 to 0.864 uM for 72 hrs by Western blot analysis. The format is functional, cell-based. The settings on record: dose 0.432-0.864 µM, DDE = dose-dependent effect.
Experiment [4] has as its system HeLa. The experiment can be described thus: Induction of apoptosis in human HeLa cells assessed as increase in p53 protein expression at 0.432 to 0.864 uM for 72 hrs by Western blot analysis. The format is functional, cell-based. The settings on record: dose 0.432-0.864 µM, DDE = dose-dependent effect.
The next experiment relates to MDA-MB-231. The experiment can be described thus: Antiproliferative activity against human MDA-MB-231 cells assessed as reduction in cell viability incubated for 72 hrs by MTT assay. The format is functional, cell-based. The settings on record: MDA-MB-231, 72 h.
The test system of experiment [5] is HeLa. The experiment can be described thus: Antiproliferative activity against human HeLa cells assessed as reduction in cell viability incubated for 72 hrs by MTT assay. The format is functional, cell-based.
Experiment [6] concerns the target T1, Tubulin (Homo sapiens) (UniProt P68371+Q9H4B7+P0DPH7+P68366+Q13509+Q71U36+P04350+Q3ZCM7+P07437+P68363+Q9BQE3+Q6PEY2+Q13885+Q9BVA1+Q9BUF5). The experiment can be described thus: Induction of microtubule stabilization in human HeLa cells assessed as microtubule bundling at 0.5 to 1 uM for 24 hrs by DAPI staining based fluorescence microscopy. The settings on record: dose 0.5-1 µM, DDE = dose-dependent effect. In kind it is cell-based.

Experiment [7] concerns HeLa. Briefly: Induction of cell cycle arrest in human HeLa cells assessed as fold change as increase in accumulation at G2/M phase at 0.432 to 0.864 uM for 72 hrs by PI staining based flow cytometry relative to control. The format is functional. The settings on record: dose 0.432-0.864 µM. A general note: Flow cytometry measures light scatter and fluorescence of single cells or particles in a stream.

Experiment [8] has as its system HeLa. Briefly: Induction of apoptosis in human HeLa cells assessed as fold change as increase in necrotic cells at 0.432 to 0.864 uM for 72 hrs by Annexin-V/PI staining based fluorescence microscopy relative to control. In kind it is functional. The settings on record: dose 0.432-0.864 µM.
For experiment [9], the system named is HeLa. The experiment can be described thus: Induction of apoptosis in human HeLa cells assessed as fold change as increase in apoptotic cells at 0.432 to 0.864 uM for 72 hrs by PI staining based flow cytometry relative to control. In kind it is functional. The settings on record: dose 0.432-0.864 µM.
A further experiment relates to MCF7. Briefly: Antiproliferative activity against human MCF7 cells assessed as reduction in cell viability incubated for 72 hrs by MTT assay. The format is functional, cell-based. The settings on record: MCF7, 72 h.
Experiment [10] deals with T1, Tubulin (Homo sapiens). The experiment can be described thus: Induction of microtubule stabilization in human HeLa cells assessed as increase in alpha-tubulin level in cell pellet at 0.5 to 1 uM for 48 hrs by Western blot analysis. The format is cell-based. The settings on record: dose 0.5-1 µM, DDE = dose-dependent effect.
Experiment [11] has as its system HeLa. The experiment can be described thus: Induction of cell cycle arrest in human HeLa cells assessed as accumulation at G2/M phase at 0.432 to 0.864 uM for 72 hrs by DAPI staining based fluorescence microscopy. The format is functional. The settings on record: dose 0.432-0.864 µM, DDE = dose-dependent effect.
In experiment [12] the target is T1, Tubulin (Homo sapiens). Briefly: Induction of microtubule stabilization in human HeLa cells assessed as microtubule bundling at 0.5 uM for 24 hrs by DAPI staining based fluorescence microscopy. The format is cell-based.
Experiment [13] addresses T1, Tubulin (Homo sapiens). Briefly: Induction of microtubule stabilization in human HeLa cells assessed as increase in alpha-tubulin level in cell pellet at 0.5 uM for 48 hrs by Western blot analysis. In kind it is cell-based. The settings on record: DDE = dose-dependent effect.

Activity calls are given as the source filed them. No cut-off for these calls is given here.

With `CC(C)(C)OC(=O)N1CCN(C(=S)Sc2ccc(C(C)(C)C)cc2)CC1`, the IC50 with A549 is 0.769 µM.
The same measure, in the same setting: the result for `CC(C)(C)OC(=O)N1CCN(C(=S)Sc2ccccc2Cl)CC1` reads 1.56 µM.
Take `S=C(Sc1ccccc1)N1CCCCC1`: in the experiment with A549, the IC50 was 7.93 µM.
In the case of `Cc1cc(C)c(SC(=S)N2CCN(C(=O)OC(C)(C)C)CC2)c(C)c1`, the IC50 in the experiment with A549 came to 1.46 µM.
On to `CC(C)(C)OC(=O)N1CCN(C(=S)Sc2ccccc2)CC1`, for which the outcome in the experiment on HeLa [1] was Active. Moreover, the Activity entry with HeLa [2], in the experiment on HeLa [3], with HeLa [4], at Tubulin (Homo sapiens) [6], at Tubulin (Homo sapiens) [10] and in the experiment with HeLa [11] was “Dde” in each case. The IC50 in the experiment with A549 amounted to 0.447 µM; in the experiment with MDA-MB-231 it was 0.615 µM; with HeLa [5] it was 0.432 µM; in the experiment with MCF7 it was 1.75 µM. The results for the “fold change (FC)” value in the experiment on HeLa [7], with HeLa [8] and in the experiment with HeLa [9] were 4, 3 and 4, respectively.
On to `S=C(Sc1ccccc1)N1CCOCC1`, for which, in the experiment with A549, the IC50 worked out at 2.52 µM.
Consider `Cc1ccccc1SC(=S)N1CCN(C(=O)OC(C)(C)C)CC1`, for which the IC50 in the experiment on A549 is 2.27 µM.
For `CC(C)(C)OC(=O)N1CCN(C(=S)Sc2ccc(Cl)cc2)CC1`, in the experiment with A549, the IC50 came out at 1.07 µM.
Regarding `CC(C)(C)c1ccc(SC(=S)N2CCCCC2)cc1`, the IC50 in the experiment on A549 is 9.13 µM.
Turning to `CC(=O)O[C@H]1C(=O)[C@@]2(C)[C@H]([C@H](OC(=O)c3ccccc3)[C@]3(O)C[C@H](OC(=O)[C@H](O)[C@@H](NC(=O)c4ccccc4)c4ccccc4)C(C)=C1C3(C)C)[C@]1(OC(C)=O)CO[C@@H]1C[C@@H]2O`, the result on Tubulin (Homo sapiens) [12] was Active. In addition, the Activity result at Tubulin (Homo sapiens) [13] is “Dde”.
`CC(C)(C)OC(=O)N1CCN(C(=S)Sc2cccc(Cl)c2)CC1`: the IC50 with A549 was 0.634 µM.
Consider `Cc1cccc(SC(=S)N2CCN(C(=O)OC(C)(C)C)CC2)c1`, for which the IC50 with A549 amounted to 0.914 µM.
For `CC(C)(C)OC(=O)N1CCN(C(=S)Sc2ccc(F)cc2)CC1`, the IC50 with A549 was found to be 1.56 µM.
Take `CC(C)(C)OC(=O)N1CCN(C(=S)Sc2ccc(Br)cc2)CC1`: in the experiment on A549, the IC50 was found to be 1.81 µM.
Regarding `CCCCN(CCCC)C(=S)Sc1ccccc1`, in the experiment with A549, the IC50 stood at 9.76 µM.
Same read-out and setting: the result for `COc1ccc(SC(=S)N2CCN(C(=O)OC(C)(C)C)CC2)cc1` reads 0.712 µM; that for `Cc1ccc(SC(=S)N2CCN(C(=O)OC(C)(C)C)CC2)cc1`, 2.1 µM; that for `Cc1ccc(C)c(SC(=S)N2CCN(C(=O)OC(C)(C)C)CC2)c1`, 0.539 µM.
